Data on 71 molecules can be found in doi:10.1101/2023.02.14.528391v1 (biorxiv, 2023).

The first series deals with hERG potassium channel (Homo sapiens, UniProt Q12809). Put plainly: in vitro.
hERG potassium channel, sequence (Q12809 whole entry): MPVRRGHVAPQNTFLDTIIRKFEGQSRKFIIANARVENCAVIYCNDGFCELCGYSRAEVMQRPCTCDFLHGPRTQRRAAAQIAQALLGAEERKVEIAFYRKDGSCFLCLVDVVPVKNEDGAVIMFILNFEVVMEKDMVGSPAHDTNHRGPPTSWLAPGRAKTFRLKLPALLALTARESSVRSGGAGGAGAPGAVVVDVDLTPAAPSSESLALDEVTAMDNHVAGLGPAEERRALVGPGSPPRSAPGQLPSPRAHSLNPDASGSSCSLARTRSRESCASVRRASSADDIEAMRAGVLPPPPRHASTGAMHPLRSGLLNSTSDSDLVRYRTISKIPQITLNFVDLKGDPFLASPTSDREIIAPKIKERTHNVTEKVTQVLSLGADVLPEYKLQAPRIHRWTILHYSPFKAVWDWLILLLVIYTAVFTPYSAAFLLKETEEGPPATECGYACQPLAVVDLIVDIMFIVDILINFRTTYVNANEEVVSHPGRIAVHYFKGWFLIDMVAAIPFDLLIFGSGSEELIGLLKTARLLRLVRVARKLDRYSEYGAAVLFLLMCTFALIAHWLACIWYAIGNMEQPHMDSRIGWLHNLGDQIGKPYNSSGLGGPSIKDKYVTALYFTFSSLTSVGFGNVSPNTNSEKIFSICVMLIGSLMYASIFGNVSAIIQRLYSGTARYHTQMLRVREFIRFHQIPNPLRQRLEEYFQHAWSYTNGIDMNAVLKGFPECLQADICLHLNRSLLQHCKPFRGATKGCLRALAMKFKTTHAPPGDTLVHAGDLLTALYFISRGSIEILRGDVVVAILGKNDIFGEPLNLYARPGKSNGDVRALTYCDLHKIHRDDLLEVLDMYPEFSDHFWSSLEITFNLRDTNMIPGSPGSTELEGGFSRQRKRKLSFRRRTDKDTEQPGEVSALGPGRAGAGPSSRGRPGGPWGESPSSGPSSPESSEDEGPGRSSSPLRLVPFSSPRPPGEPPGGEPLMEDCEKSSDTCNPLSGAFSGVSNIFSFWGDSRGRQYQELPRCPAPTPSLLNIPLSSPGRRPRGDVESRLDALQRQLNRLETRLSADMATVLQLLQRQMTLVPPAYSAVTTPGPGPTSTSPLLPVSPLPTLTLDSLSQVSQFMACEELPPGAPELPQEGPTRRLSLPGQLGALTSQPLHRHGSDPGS
Details: not given
For orientation: inhibition means the relative decrease from the control value, in per cent. `CN(C)CCN(Cc1ccccc1F)C(=O)Cc1c[nH]c2nccc(Cl)c12` [s_22____1322108____13142180]: the inhibition at 10 µM worked out at 38.7%.

Staying with this series, now noted: % inhibition.
`CN(Cc1sccc1Cl)C[C@H]1CCCCN1C(=O)c1ncccc1F`: the inhibition at 10 µM is 27.4%.
Consider `CN(CCN(C)C(=O)c1cccnc1N(C)C)Cc1cccc(Cl)c1`, for which the inhibition at 10 µM was 17.1%.
`CN(CCCN(C)C(=O)c1ccnc2ccsc12)C(=O)c1cncc(Cl)c1`: the inhibition at 10 µM was 2.59%.
As for `CN(C)CCc1nc2ccccc2n1Cc1ccccc1Cl` [GMD_7286], the inhibition at 10 µM stood at 51.3%.
`Cc1ccccc1Cn1c(CCN(C)C)nc2ccccc21` [GMD_8492]: the inhibition at 10 µM was determined as 9.23%.
Still for that read-out and setting: with `CN(C)CCc1nc2ccccc2n1Cc1ccc(F)cc1` [GMD_9161] the figure was 6.04%.
On the same count and under the same terms, under `CN(C)CCc1nc2ccccc2n1Cc1ccc(F)c(F)c1` [GMD_9634] stands 16.1%.
Still for that read-out and setting: under `CN(C)CCc1nc2ccccc2n1CCc1ccccc1` [GMD_12737] stands 45.4%.
As to `CN(C)CCn1nc(-c2ccccn2)c2ccccc2c1=O` [GMD_13601], the inhibition at 10 µM is 16.6%.
Same read-out and setting: with `CN(C)CCCn1nc(-c2ccccc2Cl)c2ccccc2c1=O` [GMD_16666] the figure was 10.6%.
On the same count and under the same terms, under `CN(C)CCn1nc(-c2ccccc2)c2ccccc2c1=O` [GMD_24043] stands 60.1%.
Same read-out and setting: with `CN(C)CCn1nc(-c2cccnc2)c2ccccc2c1=O` [GMD_36918] the figure was 2.87%; with `CN(C)CCn1nc(-c2ccncc2)c2ccccc2c1=O` [NBI1099472], 15%; with `CN(C)CCn1nc(-c2cncc(Cl)c2)c2ccccc2c1=O` [NBI1099473], 86.1%.
Take `CN(C)CCCn1nc(-c2ccncc2)c2ccccc2c1=O` [NBI1099478]: the inhibition at 10 µM came to 23.4%.
Same read-out and setting: with `CN(C)CCn1nc(-c2cccs2)c2ccccc2c1=O` [NBI1099533] the figure was 9.92%; with `CSc1ncccc1-c1nn(CCN(C)C)c(=O)c2ccccc12` [NBI1100648], 44.2%; with `Cc1ccc(-c2nn(CN(C)CCC3CCOCC3)c(=O)c3ccccc23)cc1` [m_26____7043632____590162], 7.12%.
As to `CC1CCCCC1N=c1scc(-c2ccnn2C)n1N=Cc1ccc(Cl)cn1` (centres unmarked) [s_1____86334____13026574____11759950], the inhibition at 10 µM was -2.58%.
The same measure, in the same setting: with `CN(C)CCC(Sc1nccn1Cc1ccccn1)c1ccccc1` (centres unmarked) [s_7____4839872____13940010] the figure was 5.79%; with `CN(C)CCCSc1nnc(-c2cnccn2)n1-c1ccc(Cl)cc1` [s_7____7285292____9475634], 32.1%; with `CN(C)CCC(Sc1ccncc1F)c1ccccc1` (centres unmarked) [s_7____14325654____13940010], 47.3%.
On the same count and under the same terms, under `CN(C)CCN(Cc1ccccc1)C(=O)c1ncccc1Cl` [s_11____117338____10437082] stands 9.12%.
Still for that read-out and setting: under `CN(C)CCN(CCc1ccccc1)C(=O)c1csc2cc(Cl)cnc12` [s_11____764634____11618976] stands 88.2%; under `CC(=Cc1ccccn1)C(=O)N(CCN(C)C)c1ccccc1` [s_11____2264406____11762612], 18.8%.
For `CN(C)CCN(C(=O)c1cccc2ncccc12)c1ccccc1` [s_11____2264406____15260550], the inhibition at 10 µM is 21.8%.
As to `COc1cc(C(=O)N(CCN(C)C)c2ccccc2)c2ncccc2c1` [s_11____2264406____15769708], the inhibition at 10 µM stood at 22.5%.
Regarding `CN(C)CCN(Cc1ccccc1F)C(=O)c1cccc2cccnc12` [s_11____4836284____101939], the inhibition at 10 µM is 55%.
Same read-out and setting: with `CN(C)CCN(Cc1ccc(F)cc1F)C(=O)c1cc(Br)ncc1Cl` [s_11____4836304____10207328] the figure was 28.7%; with `CN(C)CCN(Cc1ccsc1)C(=O)c1cc2c(Cl)cncc2s1` [s_11____10910498____13033826], 79.5%.
Same read-out and setting: under `CC(=Cc1ccccc1Cl)C(=O)N(CCN(C)C)c1ccccn1` [s_11____17828754____7832710] stands 48.4%.
For the molecule `Cc1ccc2c(C(=O)N(CCN(C)C)c3ccccn3)ccnc2c1Cl` [s_11____17828754____14179334], the inhibition at 10 µM amounted to 29.9%.
As for `Cc1cccc2c(C(=O)N(CCN(C)C)c3ccccn3)cnn12` [s_11____17828754____16474570], the inhibition at 10 µM turned out to be 20.8%.
For the molecule `CN(C)CCCN(Cc1ccc(Cl)c(Cl)c1)C(=O)c1nccnc1Cl` [s_22____1500308____12360522], the inhibition at 10 µM was 57.7%.
`CN(C)CCN(CCCc1ccccc1)C(=O)c1cn(C)c2ccccc12` [s_22____2161756____115777]: the inhibition at 10 µM stood at 63.8%.
On to `CN(C)CCN(Cc1ccc(F)c(F)c1)C(=O)c1ccnc(Cl)c1Cl` [s_22____2224104____12421166], for which the inhibition at 10 µM amounted to 23.5%.
The same measure, in the same setting: with `CN(C)CCN(Cc1cccc(F)c1)C(=O)CSc1nc2ccccc2n1C` [s_22____2224108____339636] the figure was 75.6%; with `Cc1cccc(CN(CCN(C)C)C(=O)C2=Cc3ccc(Cl)cc3OC2)c1` [s_22____3218898____13770932], 94.3%.
Still for that read-out and setting: under `COCCN(CCN(C)C)C(=O)c1cccnc1Oc1ccc(Cl)cc1Cl` [s_22____3489604____2009120] stands 48.6%.
For the molecule `COc1c(Cl)cc(C(=O)N(CCN(C)C)C2CCCCC2)c2ncccc12` [s_22____4639446____15428718], the inhibition at 10 µM was 42.7%.
The same measure, in the same setting: with `CN(C)CCN(Cc1nccn1C)C(=O)c1ccn(-c2ccccc2Cl)n1` [s_22____16636986____2366818] the figure was 25.8%.
The same measure, in the same setting: with `CN(C)CCN(Cc1ccccc1F)c1ncc(Cl)cc1Cl` [s_27____7100864____12221638] the figure was 86.4%; with `CN(C)CCCN(Cc1ccc(Cl)c(Cl)c1)c1cnc2ccccc2n1` [s_27____7425384____262944], 93.6%.
For the molecule `Cc1csc2ccnc(N3CCOCC4(COCCN4Cc4ccccc4)C3)c12` (centres unmarked) [s_27____15756872____16607386], the inhibition at 10 µM is 62.1%.
Same read-out and setting: under `CN(C)CCN(Cc1nccn1C)c1cc(C(F)F)nc2ccc(Cl)cc12` [s_27____16636988____10213920] stands 61%; under `Cc1cc2nc(Cl)nc(N(CCN(C)C)Cc3nccn3C)c2s1` [s_27____16636988____12112620], 71.2%; under `CN(C)CCN(Cc1nccn1C)c1nc(-c2ccccn2)nc2sccc12` [s_27____16636988____12321872], 91.6%.
In the case of `CN(C)CCN(Cc1nccn1C)c1nc2cc(Cl)ccc2s1` [s_27____16636988____14057938], the inhibition at 10 µM is 89.1%.
For the molecule `CN(C)CCN(Cc1ccccc1)C(=O)c1cc(-c2ccccn2)ccc1Cl` [s_527____284286____7794996], the inhibition at 10 µM stood at 55%.
Same read-out and setting: with `Cc1ccc(C(=O)N(CCN(C)C)Cc2ccccc2)c2ncccc12` [s_527____284286____13308974] the figure was 69.2%; with `CN(C)CCCN(Cc1ccc(Cl)c(Cl)c1)C(=O)c1nccc2ncccc12` [s_527____1500312____14775532], 40%; with `CN(C)CCCN(Cc1ccc(Cl)c(Cl)c1)C(=O)c1ccn2c1CSCC2` [s_527____1500312____16910956], 66.8%.
With `CN(C)CCN(Cc1ccccc1F)C(=O)c1cccc2ncccc12` [s_527____7348186____237975], the inhibition at 10 µM was determined as 1.57%.
For `Cc1ccc2cc(C(=O)N(CCN(C)C)Cc3ccccc3F)ccc2n1` [s_527____7348186____7593650], the inhibition at 10 µM was determined as 21.8%.
On the same count and under the same terms, with `Cc1cccc2c(C(=O)N(CCN(C)C)Cc3ccccc3F)nccc12` [s_527____7348186____14188826] the figure was 52.7%; with `CN(C)CCN(Cc1ccccc1F)C(=O)c1nccc2ncccc12` [s_527____7348186____14775532], 33.1%; with `CN(C)CCN(Cc1ccccc1F)C(=O)c1c(Cl)ccc2cccnc12` [s_527____7348186____16891240], 59.1%.
For `Clc1ccccc1N(CCN1CCOCC1)Cc1cc2ncccc2s1` [s_2230____12297302____16648172], the inhibition at 10 µM turned out to be 66%.
Same read-out and setting: with `Clc1ccccc1-n1ccc(CNC2(c3ncccn3)CCOCC2)n1` [s_2230____13270592____17316260] the figure was -0.942%; with `CN(C)CCN(CCO)Cc1csc(-c2c(Cl)cccc2Cl)n1` [s_2230____15141024____14479640], 9.6%; with `CN(C)c1ncccc1CN1CCN(C(=O)c2c(Cl)cccc2Cl)CC1` [s_270004____8133704____10229386], 2.59%.
The same measure, in the same setting: under `CN(C)CCN(Cc1ccccc1)Cc1c(Cl)cccc1-n1ccnc1` [s_270004____10205888____17057166] stands 71.1%.
The same measure, in the same setting: with `CN(C)CCCN(C)Cc1c(-c2ccccc2F)nn(C)c1Cl` [s_270004____10205916____16947572] the figure was 17.6%.
For the molecule `COCCN(CCN(C)C)Cc1c(Cl)cccc1Oc1ccccc1` [s_270004____10206068____8363900], the inhibition at 10 µM amounted to 99%.
Take `CN(C)CCN(Cc1cccs1)Cc1cc2cnn(C)c2nc1Cl` [s_270004____10206112____16971162]: the inhibition at 10 µM came out at 78.3%.
`CN(C)CCN(Cc1cccc(OCc2ccc(F)cc2)c1)Cc1nccn1C` [s_270004____16637008____8127840]: the inhibition at 10 µM worked out at 91.3%.
Still for that read-out and setting: with `CN(C)CCOc1ccccc1-c1cn(C)c2cccnc12` [s_271570____11676396____16733458] the figure was 63.8%; with `CN(C)CCN(Cc1ccccc1F)C(=O)N1CCSc2ncccc21` [s_272164____9389146____17325014], 37.3%; with `CN(C)CCN(Cc1ccccc1)C(=O)N1CCSc2ccncc21` [s_272164____9389444____9363352], 31.1%.
Take `CN(C)CCN(Cc1cccc(Cl)c1)C(=O)N1CCSc2ccncc21` [s_272164____9389444____9369516]: the inhibition at 10 µM came to 75.9%.
